Laboratory results reported in PMC8705538, “Discovery of SARS-CoV-2 Nsp14 and Nsp16 Methyltransferase Inhibitors by High-Throughput Virtual Screening” (Pharmaceuticals, 2021).
Like-named read-outs stand apart in the source and are kept apart here.

Columns and labels:
SARS-CoV-2 nsp14 = SARS-CoV-2 nsp14 (Severe acute respiratory syndrome coronavirus 2, UniProt P0DTD1); assay: biochemical; settings: for Ligand Efficiency (LE) nsp14: estimated from IC50 values
SARS-CoV-2 nsp16/nsp10 = SARS-CoV-2 nsp16/nsp10 (Severe acute respiratory syndrome coronavirus 2, UniProt P0DTD1); assay: biochemical; settings: for Ligand Efficiency (LE) nsp16: estimated from IC50 values
[1] = molecular target: T1, human Glycine N-Methyltransferase (GNMT) (Homo sapiens, UniProt Q14749); assay: HTRF methyltransferase selectivity assay, human GNMT; format: biochemical; settings: for Ligand Efficiency (LE) Human (hMtase): estimated from IC50 values
T1 construct: purchased MyBioSource MBS636160
T1 sequence (Q14749 1-295): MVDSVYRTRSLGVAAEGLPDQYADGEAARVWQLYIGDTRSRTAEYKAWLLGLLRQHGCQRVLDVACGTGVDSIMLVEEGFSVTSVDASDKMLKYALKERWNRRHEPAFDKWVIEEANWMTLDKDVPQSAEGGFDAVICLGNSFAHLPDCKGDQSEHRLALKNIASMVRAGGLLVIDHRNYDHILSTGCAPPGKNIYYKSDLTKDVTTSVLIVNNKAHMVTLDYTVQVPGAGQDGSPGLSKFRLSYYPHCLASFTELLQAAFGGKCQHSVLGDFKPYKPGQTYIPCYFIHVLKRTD

[2] = HTRF, SAM 10 µM, GpppG 4 µM, read-out: IC50 nsp14
[3] = HTRF, nsp16/nsp10, SAM 10 µM, m7GpppA-RNA, read-out: IC50 nsp16
[4] = HTRF, SAM 10 µM, glycine 5 mM, read-out: IC50 Human (hMtase, human glycine N-methyltransferase)

SMILES | Percent inhibition at 100 μM, nsp14 (SARS-CoV-2 nsp14) [%] | Percent inhibition at 100 μM, nsp16 (SARS-CoV-2 nsp16/nsp10) [%] | Percent inhibition at 100 μM, Human [1] [%] | other results
COc1cc(NC(=O)C2CCN(Cc3nc(-c4cccc(C)c4)no3)CC2)c(OC)cc1Cl [ZINC000030974583] | 19 ±1 | 45 ±11 | 48 ±8 | –
Cc1nc2ccc(Cl)cc2cc1C(=O)Nc1ccc(C(N)=O)cc1 [ZINC000019718669] | 49 ±16 | 66 ±9 | 52 ±4 | –
CC(=O)N1N=C(c2ccc3c(c2)OCO3)CC1c1cn(-c2ccccc2)nc1C (centres unmarked) [ZINC000012821397] | 27 ±5 | 15 ±5 | -5 ±2 | –
CC(C(=O)NCCCn1ccnn1)c1n[nH]c(=O)c2ccccc12 (centres unmarked) [ZINC000215108606] | 9 ±3 | 40 ±6 | 22 ±6 | –
COc1ccccc1CN1CC(C(=O)NCc2n[nH]c(=O)[nH]2)CCC1=O (centres unmarked) [ZINC000092001674] | 0 ±7 | 22 ±12 | 44 ±8 | –
CC(=O)N1N=C(c2ccc3c(c2)OCO3)OC1c1cc(-c2ccccc2)nc2ccccc12 (centres unmarked) [ZINC000021941344] | 12 ±4 | 36 ±10 | 45 ±7 | –
CCN(CCSc1ccccc1)C(=O)c1cc(-c2ccncc2)n[nH]1 [ZINC000097636636] | 5 ±2 | 19 ±7 | -46 ±2 | –
O=C(CSc1nc(CC(=O)Nc2cccc3nsnc23)cs1)Nc1ccc(F)cc1 [Compound 009-741-602] | 25 ±2 | 45 ±5 | 24 ±7 | –
Cc1cc(=O)[nH]c(NCCNC(=O)c2cc(-c3cccn3C)n[nH]2)n1 [ZINC000091693861] | 9 ±6 | 24 ±4 | 21 ±6 | –
Cc1nc(O)cc(CNc2nc3c(c(=O)[nH]2)Cc2ccccc2OC3)n1 [ZINC000095519272] | 49 ±17 | 57 ±13 | 70 ±3 | IC50 (SARS-CoV-2 nsp14; [2]): ~200 µM; Ligand Efficiency (LE) nsp14 (SARS-CoV-2 nsp14): 0.19 kcal/mol; IC50 (SARS-CoV-2 nsp16/nsp10; [3]): 95 ± 4 µM; Ligand Efficiency (LE) nsp16 (SARS-CoV-2 nsp16/nsp10): 0.21 kcal/mol; IC50 [1, 4]: 53 ± 3 µM; Ligand Efficiency (LE) Human (hMtase) [1]: 0.22 kcal/mol
CN(Cc1cccc2cnccc12)C(=O)CCC1(CCC(=O)O)CCC(=O)N1 (centres unmarked) [ZINC000220483024] | -5 ±3 | 31 ±6 | 16 ±4 | –
Cc1ncsc1CCC(=O)N1CCCC(C(=O)c2ccc3c4c(cccc24)CC3)C1 (centres unmarked) [ZINC000012755219] | 9 ±5 | 40 ±8 | 61 ±4 | –
CC(C)(C)c1csc(SCC(=O)Nc2cccc3nsnc23)n1 [Compound 009-639-090] | 16 ±1 | 43 ±7 | 61 ±9 | –
O=C(CCCn1cnc2ccccc2c1=O)Nc1ccc2ncnc(O)c2c1 [ZINC000096114839] | 28 ±7 | 17 ±5 | 83 ±6 | –
Cc1ccccc1NC(=O)c1nnn2c1NC(C(=O)O)=CC2c1ccc(C(=O)O)cc1 (centres unmarked) [ZINC000072333096] | 25 ±10 | 33 ±12 | 17 ±4 | –
CN(CCNc1nc2c(c(=O)[nH]1)Cc1ccccc1OC2)S(C)(=O)=O [Compound 028-736-920] | 8 ±5 | -4 ±3 | 42 ±2 | –
O=C(O)CCC(=O)Nc1nc2n(n1)C(c1ccccc1)CC(=O)N2 (centres unmarked) [ZINC000000095711] | -16 ±0 | -77 ±13 | – | –

SMILES | Percent inhibition at 100 μM, nsp14 (SARS-CoV-2 nsp14) [%] | Percent inhibition at 100 μM, nsp16 (SARS-CoV-2 nsp16/nsp10) [%] | Percent inhibition at 100 μM, Human [1] [%] | other results
Nc1ncnc2c1ncn2[C@@H]1O[C@H](COC(=O)c2ccc(S(=O)(=O)F)cc2)[C@@H](O)[C@H]1O [ZINC000048222133] | 58 ±2 | 42 ±6 | 87 ±1 | IC50 (SARS-CoV-2 nsp14; [2]): 53 ± 3 µM; Ligand Efficiency (LE) nsp14 (SARS-CoV-2 nsp14): 0.19 kcal/mol; IC50 (SARS-CoV-2 nsp16/nsp10; [3]): 105 ± 6 µM; Ligand Efficiency (LE) nsp16 (SARS-CoV-2 nsp16/nsp10): 0.17 kcal/mol; IC50 [1, 4]: 25.3 µM; Ligand Efficiency (LE) Human (hMtase) [1]: 0.20 kcal/mol
CN(CC1CCN(c2ccccc2)C1)S(=O)(=O)c1ccc2[nH]c(=O)oc2c1 (centres unmarked) [ZINC000952973746] | 27 ±9 | 38 ±6 | 41 ±1 | –
O=C(Cn1ccc(=O)c2ccccc21)NCCSc1cnn[nH]1 [ZINC000218615582] | 21 ±3 | 51 ±4 | 55 ±2 | –
Nc1ncnc2c1ncn2[C@@H]1O[C@H](CSCC[C@H](N)C(=O)O)[C@@H](O)[C@H]1O [S-(5′-Adenosyl)-L-homocysteine (SAH), S-(5′-Adenosyl)-L-homocysteine, reference compound] | – | – | – | IC50 (SARS-CoV-2 nsp14): 0.14 µM; Ligand Efficiency (LE) nsp14 (SARS-CoV-2 nsp14): 0.33 kcal/mol; IC50 (SARS-CoV-2 nsp16/nsp10): 0.28 µM; Ligand Efficiency (LE) nsp16 (SARS-CoV-2 nsp16/nsp10): 0.32 kcal/mol; IC50 [1]: 1.7 µM; Ligand Efficiency (LE) Human (hMtase) [1]: 0.28 kcal/mol
Cc1csc(C2CCCN(C(=O)CCn3cnc4c(N)ncnc43)C2)n1 (centres unmarked) [Compound 046-114-939] | 15 ±4 | 37 ±13 | – | –
COc1ccc(C2=NN(C(=O)CCc3ccc4c(c3)OCO4)C(O)(C(F)(F)F)C2)cc1 (centres unmarked) [ZINC000016448507] | 9 ±4 | 11 ±5 | – | –
O=C(Cc1ccc2c(c1)CCO2)Nc1ccc2nc[nH]c(=O)c2c1 [ZINC000170622294] | -2 ±2 | -6 ±3 | – | –
CC(C)N(CC1OC(n2cnc3c(N)ncnc32)C(O)C1O)C1CC(CCc2nc3cc(C(C)(C)C)ccc3[nH]2)C1 (centres unmarked) [ZINC000100074350] | 30 ±4 | 68 ±7 | – | –
C=CCn1c(=O)c(=O)n(CC(=O)NCCN2CCN(c3cc(Cl)ccc3C)CC2)c2ccccc21 [ZINC000033268761] | 9 ±3 | 32 ±7 | – | –
O=C(CCc1ccc(O)cc1)NC(c1ccc2c(c1)CCO2)C1CC(O)C1 (centres unmarked) [ZINC000220681335] | 0 ±2 | 10 ±5 | – | –
O=C(CCc1c[nH]c2ccccc12)N1CCCC1c1ccc[nH]1 (centres unmarked) [ZINC000019688789] | 2 ±0 | -10 ±1 | – | –
NC(=O)CC[C@H](N)C(=O)NS(=O)(=O)OC[C@H]1O[C@@H](n2cnc3c(N)ncnc32)[C@H](O)[C@@H]1O [ZINC000036477981] | 20 ±3 | 50 ±11 | 89 ±8 | –
Nc1ncnc2c1ncn2[C@@H]1O[C@H](C(=O)N2CCN(CC(=O)Nc3cccc4c3CNC4=O)CC2)[C@@H](O)[C@H]1O [ZINC000017654909] | 62 ±2 | 65 ±7 | 98 ±2 | IC50 (SARS-CoV-2 nsp14; [2]): 75 ± 4 µM; Ligand Efficiency (LE) nsp14 (SARS-CoV-2 nsp14): 0.14 kcal/mol; IC50 (SARS-CoV-2 nsp16/nsp10; [3]): 75 ± 4 µM; Ligand Efficiency (LE) nsp16 (SARS-CoV-2 nsp16/nsp10): 0.14 kcal/mol; IC50 [1, 4]: 22.8 µM; Ligand Efficiency (LE) Human (hMtase) [1]: 0.16 kcal/mol
NC1=NC(c2ccccc2)n2c(nc(=O)c3ccccc32)N1 (centres unmarked) [ZINC000008994271] | 19 ±10 | 39 ±3 | -3 ±6 | –
CN(C)c1nc2c(c(N(C)C)n1)CCN(C(=O)[C@@H](N)Cc1ccc(O)cc1)C2 [ZINC000071682020] | 12 ±5 | 9 ±8 | – | –
Nc1ncnc2c1ncn2[C@@H]1O[C@H](C(=O)NC2CC2)[C@@H](O)[C@H]1O [ZINC000004475116] | 32 ±6 | 54 ±10 | 56 ±1 | –
O=C(CCCn1cncn1)N1CCCC(c2nc3ccccc3s2)C1 (centres unmarked) [Compound 045-938-897] | 7 ±2 | -29 ±5 | – | –
